Assay results: the supplement of paper PMC10307832

What was measured:
Experiment in all cases: relative viability (nuclei count vs DMSO), 5 days (fraction); higher = more cells survive
Selisistat + OSI-027 = compound: C1CC(C2=C(C1)C3=C(N2)C=CC(=C3)Cl)C(=O)N [Selisistat] + COc1cccc2cc(-c3nc([C@H]4CC[C@H](C(=O)O)CC4)n4ncnc(N)c34)[nH]c12 [OSI-027] (partner 0.5 µM)
Method in brief: (§1)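 After 5 days of treatment, lung cancer cells in 1536-well plates were fixed and stained in a single step (final 0.05% Triton X-100, 1% formaldehyde, 1 ug/ml Hoechst) and their nuclei counted on 4× images. Treatment had been applied by pin tool the day after seeding as one drug alone or as a fixed anchor-drug dose with five library-drug doses (not always all listed) in √10 steps. Relative viability is the nuclei count of treated wells divided by that of vehicle wells, and values are medians of duplicate plates.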

Selisistat + Vorinostat = compound: C1CC(C2=C(C1)C3=C(N2)C=CC(=C3)Cl)C(=O)N [Selisistat] + O=C(CCCCCCC(=O)Nc1ccccc1)NO [Vorinostat] (partner 1 µM)
Method in brief: as §1

Serdemetan + Navitoclax = compound: c1ccc2c(CCNc3ccc(Nc4ccncc4)cc3)c[nH]c2c1 [Serdemetan] + CC1(C)CCC(c2ccc(Cl)cc2)=C(CN2CCN(c3ccc(C(=O)NS(=O)(=O)c4ccc(N[C@H](CCN5CCOCC5)CSc5ccccc5)c(S(=O)(=O)C(F)(F)F)c4)cc3)CC2)C1 [Navitoclax] (partner 0.5 µM)
Method in brief: as §1

Serdemetan + Linsitinib = compound: c1ccc2c(CCNc3ccc(Nc4ccncc4)cc3)c[nH]c2c1 [Serdemetan] + C[C@]1(O)C[C@@H](c2nc(-c3ccc4ccc(-c5ccccc5)nc4c3)c3c(N)nccn32)C1 [Linsitinib] (partner 1 µM)
Method in brief: as §1

Cell Line	relative viability (Selisistat + OSI-027; first compound 0.4 µM)	relative viability (Selisistat + OSI-027; first compound 1.265 µM)	relative viability (Selisistat + OSI-027; first compound 4 µM)	relative viability (Selisistat + OSI-027; first compound 12.65 µM)	relative viability (Selisistat + OSI-027; first compound 40 µM)	relative viability (Selisistat + Vorinostat; first compound 0.4 µM)	relative viability (Selisistat + Vorinostat; first compound 1.265 µM)	relative viability (Selisistat + Vorinostat; first compound 4 µM)	relative viability (Selisistat + Vorinostat; first compound 12.65 µM)	relative viability (Selisistat + Vorinostat; first compound 40 µM)	relative viability (Serdemetan + Navitoclax; first compound 0.04 µM)	relative viability (Serdemetan + Navitoclax; first compound 0.1265 µM)	relative viability (Serdemetan + Navitoclax; first compound 0.4 µM)	relative viability (Serdemetan + Navitoclax; first compound 1.265 µM)	relative viability (Serdemetan + Navitoclax; first compound 4 µM)	relative viability (Serdemetan + Linsitinib; first compound 0.04 µM)	relative viability (Serdemetan + Linsitinib; first compound 0.1265 µM)	relative viability (Serdemetan + Linsitinib; first compound 0.4 µM)	relative viability (Serdemetan + Linsitinib; first compound 1.265 µM)	relative viability (Serdemetan + Linsitinib; first compound 4 µM)
NCI-H1666	0.794	0.744	0.841	0.673	0.711	1.09	1.13	1.11	1.13	1.17	0.913	0.941	0.877	0.726	0.83	0.944	0.85	0.761	0.784	0.724
NCI-H1734	0.616	0.636	0.491	0.545	0.685	0.871	0.68	0.783	0.843	0.85	0.68		0.202	0.108	0.188	0.702		0.299	0.182	0.194
NCI-H1755	0.745	0.736	0.739	0.686	0.746	0.831	0.903	0.975	0.766	0.928	0.973	0.976	0.867	0.527	0.448	0.956	0.941	0.881	0.556	0.653
NCI-H1793	0.28	0.245		0.299	0.345	0.899	0.679		0.88	0.781	0.337	0.408	0.39	0.349	0.263	0.978	0.834	0.574	0.525	0.336
NCI-H1915	0.678	0.646	0.425	0.605	0.646	0.494	0.538	0.661	0.538	0.641	0.815	0.759	0.78	0.372	0.687	1.03	1.08	1.08	0.975	0.908
NCI-H1944	0.485	0.394		0.433	0.441	0.563	0.526	0.51	0.547	0.593	1.07	1.04	0.978		0.376	1.23	1.17	1.06		0.6
NCI-H1975	0.678	0.718	0.62	0.659	0.626	0.734	0.731	0.752	0.687	0.691	1.01	0.998	1.2	1.05	1.24	1.01	1.04	0.974	0.985	1.19
NCI-H1993	0.506	0.584	0.618	0.554	0.542	0.969	0.782		0.848	0.949	0.952	0.92	0.78		0.875	0.688	0.648	0.677		0.713
NCI-H2009	0.659	0.662	0.424	0.509	0.535	0.774	0.786	0.77	0.741	0.793	1.11	1.12	1.17	1.06	1.01	1.18	1.2	1.13	1	0.979
NCI-H2023	0.492	0.405	0.347	0.401	0.406	0.662	0.786	0.784	0.674	0.853	0.929	1.05	0.99	0.682	0.344	0.708	0.766	0.613	0.601	0.253
NCI-H2085	0.822	0.733	0.397	0.79	0.921	0.908	0.855	0.714	0.828	0.84	1.16	1.01	1.04	0.815	0.685	0.939	0.901	0.836	0.621	0.581
NCI-H2087	0.646	0.645		0.516	0.652	0.897	0.667		0.422	0.76	1.05	1	0.715	0.467	0.64	0.907	0.842	0.945	0.608	0.505
NCI-H2126	0.781	0.639	0.609	0.62	0.768	0.865	0.792	0.691	0.861	0.845	0.841	0.869	0.795	0.704	0.825	0.745	0.736	0.638	0.642	0.686
NCI-H2228	0.57	0.541	0.484	0.651	0.569	0.724	0.5	1	0.725	1.08	0.878	0.782	0.86	0.34	0.199	0.806	0.68	0.519	0.59	0.397
NCI-H2347	0.61	0.403	0.246	0.482	0.46	0.478	0.484		0.666	0.772	0.737	0.779	0.712	0.624	0.374	0.753	0.965	0.959	0.666	0.679
NCI-H2405	0.674	0.579	0.598	0.674	0.666	1.07	1.19		0.975	0.927	0.813	1.03	1.01	0.921	0.721	0.864	0.997	0.964	0.897	0.628
NCI-H3122	0.9	0.933	0.444	0.892	1.01	0.977	0.919		1.09	1.34	0.975	0.951	1		1.04	1.09	0.946	1.05		1.07
